The numbers were not newly measured in US7041655B1, “Capillary membrane stabilization and reduction of tissue injury through use of IV biodegradable macromolecules with antioxidants and/or other chemicals” (priority 1996, dated 2006), which cites them from elsewhere.

A value given as a limit tells only on which side of the number the result lay.

For series [1] the following is noted: in 24 hours; molecules below 50,000 daltons rapidly eliminated by renal excretion.
For series [2] the following is noted: intravenous infusion.
For series [3] the following is noted: used for fluid replacement therapy.

Turning to hydroxyethyl starch, the “part of a given total dose appearing in the urine” value in series [1] is reported as “approximately 40%”. In series [2], the “duration of improved hemodynamic status of the subject” value is ≥ 24 h. Further, the “time over which the expansion of plasma volume decreases” value in series [2] (expansion slightly in excess of the volume infused) is 24 to 36 h. The toxic reactions observed entry in series [3] is recorded as “Few toxic reactions”.

As for dextran, the toxic reactions observed entry in series [3] is “Few toxic reactions”.
